# Laboratory results published in ChEMBL document CHEMBL1201862, “PubChem BioAssay data set” (2004).
# Activity calls are given as the source filed them.
# Legend:
# [1] = LGR2 antagonists, dose response, cell-based, HEK293, CRE-luciferase reporter, cherry pick, set 2 (AID 743343); type: functional;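 further: transfected cells were stimulated with diluted bursicon conditioned medium after compound addition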
# [2] = A549 cell cytotoxicity, dose response, cytotoxicity control, plate reader, cherry-pick, antagonist series (AID 743412); type: functional, cell-based
# [3] = HepG2 cell cytotoxicity, dose response, cytotoxicity control, plate reader, cherry-pick, antagonist series (AID 743416); type: functional, cell-based
# [4] = MC4R antagonists, dose response, counter-screen for LGR2 antagonist project, cell-based, plate reader, cherry pick (AID 743444); type: functional;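 further: transfected HEK 293 cells stimulated with alpha-MSH peptide; potency of inhibitors of the alpha-MSH evoked signal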
# [5] = biological target: T1, Fatty acid synthase (Homo sapiens, UniProt P49327); experiment: FAS thioesterase domain inhibitors, dose response, biochemical, endpoint fluorescence intensity, uHTS hits (AID 624327); type: functional;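 further: fluorescence from hydrolysis of an O-methyl fluorescein acyl ester substrate by the enzyme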
# T1 sequence (P49327 whole entry, the tested form may be a part): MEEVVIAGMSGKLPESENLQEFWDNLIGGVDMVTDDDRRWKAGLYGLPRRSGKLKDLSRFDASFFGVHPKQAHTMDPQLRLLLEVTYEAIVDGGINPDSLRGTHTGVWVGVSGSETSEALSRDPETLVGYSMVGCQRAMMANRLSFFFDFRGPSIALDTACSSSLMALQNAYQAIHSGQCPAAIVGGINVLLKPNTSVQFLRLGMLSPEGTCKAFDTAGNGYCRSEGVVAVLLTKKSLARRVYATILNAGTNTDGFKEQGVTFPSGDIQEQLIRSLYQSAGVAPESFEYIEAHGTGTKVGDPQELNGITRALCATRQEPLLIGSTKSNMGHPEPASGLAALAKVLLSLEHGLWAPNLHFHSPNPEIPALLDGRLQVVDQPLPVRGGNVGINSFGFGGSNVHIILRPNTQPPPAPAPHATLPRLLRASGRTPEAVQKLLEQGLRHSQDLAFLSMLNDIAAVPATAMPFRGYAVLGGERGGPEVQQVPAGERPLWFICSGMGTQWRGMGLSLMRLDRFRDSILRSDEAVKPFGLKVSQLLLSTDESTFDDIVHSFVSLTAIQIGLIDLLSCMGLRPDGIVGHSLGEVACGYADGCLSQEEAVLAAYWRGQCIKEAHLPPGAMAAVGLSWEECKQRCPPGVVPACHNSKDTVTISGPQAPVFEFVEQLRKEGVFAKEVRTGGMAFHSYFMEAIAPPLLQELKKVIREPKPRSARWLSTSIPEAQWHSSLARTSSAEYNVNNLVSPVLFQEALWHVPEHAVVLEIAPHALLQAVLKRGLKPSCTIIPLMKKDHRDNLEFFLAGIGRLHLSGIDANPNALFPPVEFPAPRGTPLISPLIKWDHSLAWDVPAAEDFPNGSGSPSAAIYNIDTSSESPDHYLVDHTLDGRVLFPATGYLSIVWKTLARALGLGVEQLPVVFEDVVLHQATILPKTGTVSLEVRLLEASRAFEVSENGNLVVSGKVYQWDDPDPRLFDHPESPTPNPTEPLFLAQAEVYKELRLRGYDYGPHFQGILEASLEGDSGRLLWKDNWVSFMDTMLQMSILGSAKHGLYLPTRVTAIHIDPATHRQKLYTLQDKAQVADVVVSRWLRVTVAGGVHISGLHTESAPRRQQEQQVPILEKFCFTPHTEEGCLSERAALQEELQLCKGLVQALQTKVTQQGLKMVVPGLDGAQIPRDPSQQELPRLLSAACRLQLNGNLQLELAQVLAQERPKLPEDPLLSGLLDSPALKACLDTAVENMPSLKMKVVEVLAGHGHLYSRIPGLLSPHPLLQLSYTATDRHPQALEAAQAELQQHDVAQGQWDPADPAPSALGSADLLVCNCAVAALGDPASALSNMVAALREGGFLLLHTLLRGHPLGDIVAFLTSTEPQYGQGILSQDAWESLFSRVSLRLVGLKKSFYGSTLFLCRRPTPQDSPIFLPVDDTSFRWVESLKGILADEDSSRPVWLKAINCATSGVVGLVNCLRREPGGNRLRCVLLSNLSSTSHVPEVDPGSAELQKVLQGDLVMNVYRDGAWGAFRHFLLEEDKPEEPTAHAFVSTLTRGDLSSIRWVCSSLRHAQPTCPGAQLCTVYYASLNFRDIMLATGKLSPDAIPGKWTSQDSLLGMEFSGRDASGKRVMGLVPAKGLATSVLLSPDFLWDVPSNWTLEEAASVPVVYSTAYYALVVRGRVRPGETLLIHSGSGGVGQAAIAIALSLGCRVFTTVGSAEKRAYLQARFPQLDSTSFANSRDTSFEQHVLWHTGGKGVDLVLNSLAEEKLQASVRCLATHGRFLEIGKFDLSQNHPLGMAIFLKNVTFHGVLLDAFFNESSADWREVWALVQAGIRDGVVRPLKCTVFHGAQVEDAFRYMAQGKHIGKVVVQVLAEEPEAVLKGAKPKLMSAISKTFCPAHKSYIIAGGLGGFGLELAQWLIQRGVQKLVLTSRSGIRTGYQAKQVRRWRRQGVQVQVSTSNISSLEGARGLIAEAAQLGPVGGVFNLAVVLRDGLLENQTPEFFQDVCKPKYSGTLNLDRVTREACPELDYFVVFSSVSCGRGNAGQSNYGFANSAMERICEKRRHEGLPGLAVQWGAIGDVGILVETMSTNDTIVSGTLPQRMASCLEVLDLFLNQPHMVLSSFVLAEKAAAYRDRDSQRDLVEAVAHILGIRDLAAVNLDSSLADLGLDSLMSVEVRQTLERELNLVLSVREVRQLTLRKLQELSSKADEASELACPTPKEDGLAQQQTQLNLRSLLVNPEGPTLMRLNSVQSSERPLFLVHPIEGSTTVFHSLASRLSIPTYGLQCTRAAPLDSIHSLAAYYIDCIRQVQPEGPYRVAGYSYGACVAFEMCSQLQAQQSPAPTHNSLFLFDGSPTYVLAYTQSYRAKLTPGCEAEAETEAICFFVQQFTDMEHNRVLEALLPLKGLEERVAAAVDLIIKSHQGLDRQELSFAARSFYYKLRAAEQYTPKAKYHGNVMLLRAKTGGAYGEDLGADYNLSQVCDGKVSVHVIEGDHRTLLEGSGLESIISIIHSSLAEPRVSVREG
# [6] = biological target: T1, Fatty acid synthase; experiment: FAS thioesterase domain inhibitors, dose response, biochemical, kinetic fluorescence intensity (AID 624326); type: functional;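 further: rate of fluorescence rise from hydrolysis of a fluorogenic O-methyl fluorescein ester substrate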
# [7] = biological target: Prothrombin (Homo sapiens, UniProt P00734); experiment: Thrombin 1536 HTS Dose Response Confirmation. [Related pubchem assays: 1046 (Thrombin 1536 HTS; hits were confirmed in this assay)]; type: functional
# [8] = biological target: T2, DNA repair protein RAD52 homolog (Homo sapiens, UniProt P43351); type: functional, biochemical
# T2 sequence (P43351 whole entry): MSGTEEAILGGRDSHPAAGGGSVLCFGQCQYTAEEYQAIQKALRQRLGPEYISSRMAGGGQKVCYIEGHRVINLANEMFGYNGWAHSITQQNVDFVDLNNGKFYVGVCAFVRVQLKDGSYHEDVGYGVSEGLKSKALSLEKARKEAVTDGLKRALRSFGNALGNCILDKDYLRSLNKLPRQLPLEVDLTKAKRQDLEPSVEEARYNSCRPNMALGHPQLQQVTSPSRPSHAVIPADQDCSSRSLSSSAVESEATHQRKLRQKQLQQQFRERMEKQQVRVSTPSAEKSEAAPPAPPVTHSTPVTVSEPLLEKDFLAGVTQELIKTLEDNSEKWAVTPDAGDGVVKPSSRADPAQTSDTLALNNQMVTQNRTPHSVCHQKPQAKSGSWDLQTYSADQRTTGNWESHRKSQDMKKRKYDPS
# [9] = biological target: T3, Estrogen receptor (Homo sapiens, UniProt P03372);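 further: potency for inhibiting coactivator peptide recruitment to the receptor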
# T3 sequence (P03372 whole entry): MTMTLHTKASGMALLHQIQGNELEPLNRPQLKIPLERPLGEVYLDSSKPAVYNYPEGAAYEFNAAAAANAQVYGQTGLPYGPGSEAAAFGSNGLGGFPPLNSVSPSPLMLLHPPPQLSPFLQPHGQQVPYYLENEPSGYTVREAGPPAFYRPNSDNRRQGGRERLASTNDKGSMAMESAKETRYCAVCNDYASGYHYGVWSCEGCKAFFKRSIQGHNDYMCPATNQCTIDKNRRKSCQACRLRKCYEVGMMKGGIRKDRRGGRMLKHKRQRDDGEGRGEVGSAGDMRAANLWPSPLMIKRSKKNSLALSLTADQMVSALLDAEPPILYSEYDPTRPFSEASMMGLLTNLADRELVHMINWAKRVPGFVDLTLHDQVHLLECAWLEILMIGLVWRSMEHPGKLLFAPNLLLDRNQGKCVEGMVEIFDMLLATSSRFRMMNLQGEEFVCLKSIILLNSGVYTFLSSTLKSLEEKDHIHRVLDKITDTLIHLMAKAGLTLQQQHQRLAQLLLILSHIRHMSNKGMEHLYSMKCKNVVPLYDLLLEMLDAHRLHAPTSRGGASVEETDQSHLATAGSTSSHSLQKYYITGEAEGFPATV
# [10] = inhibitors of clade B AD8 Env fusion, dose response, cell-based, cherry-pick (AID 652062); type: functional;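 further: luciferase signal from cell-cell fusion driven by HIV-1 clade B AD8 Env; potency is for inhibitors of fusion seen as a drop in luminescence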
# [11] = biological target: T4, Heat shock factor protein 1 (Mus musculus, UniProt P38532); experiment: HSF1 potentiators in luciferase reporter cells, confirmation, cell-based, NIH3T3, luminescence, dose retest (AID 435004); type: functional;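 further: stress induced by proteasome inhibitor MG132 added 30 min after compound; luciferase reporter driven by HSF1 response element in NIH3T3 cells; actives raise luminescence as potentiators of the MG132 stress response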
# T4 sequence (P38532 whole entry): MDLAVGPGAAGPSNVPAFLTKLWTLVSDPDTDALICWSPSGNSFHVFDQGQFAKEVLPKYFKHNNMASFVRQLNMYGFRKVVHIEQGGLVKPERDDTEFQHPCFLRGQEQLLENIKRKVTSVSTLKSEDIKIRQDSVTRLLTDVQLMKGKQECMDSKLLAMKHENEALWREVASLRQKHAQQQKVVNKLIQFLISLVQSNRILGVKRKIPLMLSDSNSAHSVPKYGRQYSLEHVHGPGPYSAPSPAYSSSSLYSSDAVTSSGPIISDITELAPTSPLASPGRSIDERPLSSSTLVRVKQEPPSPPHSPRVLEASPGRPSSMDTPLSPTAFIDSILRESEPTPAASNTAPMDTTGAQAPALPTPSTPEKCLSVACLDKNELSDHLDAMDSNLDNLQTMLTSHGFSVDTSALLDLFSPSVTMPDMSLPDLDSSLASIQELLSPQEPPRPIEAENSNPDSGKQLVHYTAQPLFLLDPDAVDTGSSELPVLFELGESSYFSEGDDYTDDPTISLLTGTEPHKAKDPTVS
# [12] = intracellular Trypanosoma cruzi inhibitors in host cells – cell-based, plate reader, cherry-pick samples, set 3, dose response (AID 651818); type: functional;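 further: compounds incubated with infected cells for about four days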
structure (smiles),measurement,setting,value
COc1ccc(S(=O)(=O)N(C)C[C@@H]2OCc3cnnn3CCCC(=O)N([C@@H](C)CO)C[C@H]2C)cc1,AC50,[1],2.36 µM (active)
same,AC50,[2],> 52 µM (inactive)
same,AC50,[3],> 52 µM (inactive)
same,AC50,[4],1.75 µM (active)
CCOc1ccc(C2CC(=O)N(Nc3ccc([N+](=O)[O-])cc3[N+](=O)[O-])C2=O)cc1 (stereo not given),IC50,[5],1.84 µM (active)
same,IC50,[6],1.44 µM (active)
same,IC50,[7],> 50 µM (not active)
CN(C)CCCNC(=O)C(=O)Nc1cc2c3c(c1)CC(=O)N3CCC2,AC50,[8],15.4 µM (active)
C/C(=N\Nc1ccc(Cl)c(C(=O)O)c1)c1cccc([N+](=O)[O-])c1,IC50,[7],> 50 µM (not active)
CCOC(=O)Cc1ccc(NS(=O)(=O)c2ccc(SC)cc2)cc1,IC50,[9],> 50 µM (not active)
O=C(COC(=O)c1ncc(Cl)c(Cl)c1Cl)NCc1cccs1,AC50,[10],1.12 µM (active)
Cc1ccc(C(=O)n2cnnc2N)cc1,EC50,[11],> 260 µM (inactive)
same,IC50,[7],4.05 µM (active)
C[C@H](CO)N1C[C@H](C)[C@@H](CN(C)S(=O)(=O)c2ccc(Cl)cc2)Oc2c(cccc2N(C)C)C1=O,AC50,[12],10.1 µM (active)
C[C@@H]1CN([C@H](C)CO)C(=O)c2cccc(NS(=O)(=O)c3ccc(Cl)cc3)c2O[C@H]1CN(C)Cc1ccc(C(=O)Nc2ccccc2N)cc1,AC50,[12],1.77 µM (active)
